Measured values from the supplement of paper PMC11424490.

What was measured:
NCI-H2122 = assay: combination cScore with adagrasib (Bliss gap around IC50) (%PoC); higher = stronger additive effect
Experimental: (§1)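 Combination screen of 179 inhibitors with the KRAS G12C inhibitor adagrasib (MRTX849) in dose matrices, CellTiter-Glo readout in NCI-H2122 (72 h), SW837 (144 h) and NCI-H358 cells. The cScore is the mean Bliss-independence gap (expected minus observed viability, in %PoC) over a 3x3 field around the IC50s of both drugs. Positive means additive, and >~10 is stated as clear additive.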

SW837 = assay: as above
Experimental: as §1

Compound	combination cScore with adagrasib (NCI-H2122)	combination cScore with adagrasib (SW837)
CC(=O)O[C@@]12CO[C@@H]1C[C@H](O)[C@@]1(C)C(=O)[C@H](O)C3=C(C)[C@@H](OC(=O)[C@H](O)[C@@H](NC(=O)OC(C)(C)C)c4ccccc4)C[C@@](O)([C@@H](OC(=O)c4ccccc4)[C@H]21)C3(C)C [Docetaxel] + C=C(F)C(=O)N1CCN(c2nc(OC[C@@H]3CCCN3C)nc3c2CCN(c2cccc4cccc(Cl)c24)C3)C[C@@H]1CC#N [adagrasib]	3.05	0.74
COc1cccc2c1C(=O)c1c(O)c3c(c(O)c1C2=O)C[C@@](O)(C(=O)CO)C[C@@H]3O[C@H]1C[C@H](N)[C@H](O)[C@H](C)O1 [Doxorubicin] + C=C(F)C(=O)N1CCN(c2nc(OC[C@@H]3CCCN3C)nc3c2CCN(c2cccc4cccc(Cl)c24)C3)C[C@@H]1CC#N [adagrasib]	-0.16	4.49
CN(NC(=O)CC(=O)NN(C)C(=S)c1ccccc1)C(=S)c1ccccc1 [Elesclomol] + C=C(F)C(=O)N1CCN(c2nc(OC[C@@H]3CCCN3C)nc3c2CCN(c2cccc4cccc(Cl)c24)C3)C[C@@H]1CC#N [adagrasib]	2.19	6.34
CNC(=O)c1ccc(N2C(=S)N(c3ccc(C#N)c(C(F)(F)F)c3)C(=O)C2(C)C)cc1F [Enzalutamide] + C=C(F)C(=O)N1CCN(c2nc(OC[C@@H]3CCCN3C)nc3c2CCN(c2cccc4cccc(Cl)c24)C3)C[C@@H]1CC#N [adagrasib]	4.58	7.72
COc1cc([C@@H]2c3cc4c(cc3[C@@H](O[C@@H]3O[C@@H]5CO[C@@H](C)O[C@H]5[C@H](O)[C@H]3O)[C@H]3COC(=O)[C@H]23)OCO4)cc(OC)c1O [Etoposide] + C=C(F)C(=O)N1CCN(c2nc(OC[C@@H]3CCCN3C)nc3c2CCN(c2cccc4cccc(Cl)c24)C3)C[C@@H]1CC#N [adagrasib]	2.33	-0.11
CO[C@H]1C[C@@H]2CC[C@@H](C)[C@@](O)(O2)C(=O)C(=O)N2CCCC[C@H]2C(=O)O[C@H]([C@H](C)C[C@@H]2CC[C@@H](OCCO)[C@H](OC)C2)CC(=O)[C@H](C)/C=C(\C)[C@@H](O)[C@@H](OC)C(=O)[C@H](C)C[C@H](C)/C=C/C=C/C=C/1C [Everolimus] + C=C(F)C(=O)N1CCN(c2nc(OC[C@@H]3CCCN3C)nc3c2CCN(c2cccc4cccc(Cl)c24)C3)C[C@@H]1CC#N [adagrasib]	-6.03	1.15
CN1CC[C@H](c2c(O)cc(O)c3c(=O)cc(-c4ccccc4Cl)oc23)[C@H](O)C1 [Flavopiridol] + C=C(F)C(=O)N1CCN(c2nc(OC[C@@H]3CCCN3C)nc3c2CCN(c2cccc4cccc(Cl)c24)C3)C[C@@H]1CC#N [adagrasib]	-0.29	2.43
Nc1nc(F)nc2c1ncn2[C@@H]1O[C@H](CO)[C@@H](O)[C@@H]1O [Fludarabine] + C=C(F)C(=O)N1CCN(c2nc(OC[C@@H]3CCCN3C)nc3c2CCN(c2cccc4cccc(Cl)c24)C3)C[C@@H]1CC#N [adagrasib]	-6.95	2.57
O=c1[nH]cc(F)c(=O)[nH]1 [Fluorouracil (5-FU)] + C=C(F)C(=O)N1CCN(c2nc(OC[C@@H]3CCCN3C)nc3c2CCN(c2cccc4cccc(Cl)c24)C3)C[C@@H]1CC#N [adagrasib]	9.62	-0.87
C[C@]12CC[C@@H]3c4ccc(O)cc4C[C@@H](CCCCCCCCC[S+]([O-])CCCC(F)(F)C(F)(F)F)[C@H]3[C@@H]1CC[C@@H]2O (stereo partly specified) [Fulvestrant] + C=C(F)C(=O)N1CCN(c2nc(OC[C@@H]3CCCN3C)nc3c2CCN(c2cccc4cccc(Cl)c24)C3)C[C@@H]1CC#N [adagrasib]	3.46	2.82
CN(C)c1ccccc1CN1CCCN(Cc2ccccc2N(C)C)C1c1ccncc1 [GANT61] + C=C(F)C(=O)N1CCN(c2nc(OC[C@@H]3CCCN3C)nc3c2CCN(c2cccc4cccc(Cl)c24)C3)C[C@@H]1CC#N [adagrasib]	7.28	-0.37
N#CN=C(NCCCCCCOc1ccc(Cl)cc1)Nc1ccncc1 [GMX1778] + C=C(F)C(=O)N1CCN(c2nc(OC[C@@H]3CCCN3C)nc3c2CCN(c2cccc4cccc(Cl)c24)C3)C[C@@H]1CC#N [adagrasib]	-7.75	2.82
CCOC(=O)CCNc1cc(N2CCc3ccccc3CC2)nc(-c2ccccn2)n1 [GSK-J4] + C=C(F)C(=O)N1CCN(c2nc(OC[C@@H]3CCCN3C)nc3c2CCN(c2cccc4cccc(Cl)c24)C3)C[C@@H]1CC#N [adagrasib]	17.9	0.593
CC(C)c1cc(-c2n[nH]c(=O)n2-c2ccc3c(ccn3C)c2)c(O)cc1O [Ganetespib] + C=C(F)C(=O)N1CCN(c2nc(OC[C@@H]3CCCN3C)nc3c2CCN(c2cccc4cccc(Cl)c24)C3)C[C@@H]1CC#N [adagrasib]	-3.01	4.14
Nc1ccn([C@@H]2O[C@H](CO)[C@@H](O)C2(F)F)c(=O)n1 [Gemcitabine] + C=C(F)C(=O)N1CCN(c2nc(OC[C@@H]3CCCN3C)nc3c2CCN(c2cccc4cccc(Cl)c24)C3)C[C@@H]1CC#N [adagrasib]	-4.78	-2.8
COc1ncc(-c2nc3c(n2C(C)C)[C@H](c2ccc(Cl)cc2)N(c2cc(Cl)cn(C)c2=O)C3=O)c(OC)n1 [HDM-201] + C=C(F)C(=O)N1CCN(c2nc(OC[C@@H]3CCCN3C)nc3c2CCN(c2cccc4cccc(Cl)c24)C3)C[C@@H]1CC#N [adagrasib]	1.48	3.06
CC(=O)[C@]1(O)Cc2c(O)c3c(c(O)c2[C@@H](O[C@H]2C[C@H](N)[C@H](O)[C@H](C)O2)C1)C(=O)c1ccccc1C3=O [Idarubicin] + C=C(F)C(=O)N1CCN(c2nc(OC[C@@H]3CCCN3C)nc3c2CCN(c2cccc4cccc(Cl)c24)C3)C[C@@H]1CC#N [adagrasib]	4.03	2.73
Cc1ccc(NC(=O)c2ccc(CN3CCN(C)CC3)cc2)cc1Nc1nccc(-c2cccnc2)n1 [Imatinib] + C=C(F)C(=O)N1CCN(c2nc(OC[C@@H]3CCCN3C)nc3c2CCN(c2cccc4cccc(Cl)c24)C3)C[C@@H]1CC#N [adagrasib]	-0.92	-2.11
CC(C)NC[C@@H](C(=O)N1CCN(c2ncnc3c2[C@H](C)C[C@H]3O)CC1)c1ccc(Cl)cc1 [Ipatasertib] + C=C(F)C(=O)N1CCN(c2nc(OC[C@@H]3CCCN3C)nc3c2CCN(c2cccc4cccc(Cl)c24)C3)C[C@@H]1CC#N [adagrasib]	1.14	6.57
O=C(/C=C\n1cnc(-c2cc(C(F)(F)F)cc(C(F)(F)F)c2)n1)NNc1cnccn1 [KPT-330] + C=C(F)C(=O)N1CCN(c2nc(OC[C@@H]3CCCN3C)nc3c2CCN(c2cccc4cccc(Cl)c24)C3)C[C@@H]1CC#N [adagrasib]	8.01	3.48
CN[C@@H](C)C(=O)N[C@H](C(=O)N1CCC[C@H]1c1nc(C(=O)c2ccc(F)cc2)cs1)C1CCCCC1 [LCL161] + C=C(F)C(=O)N1CCN(c2nc(OC[C@@H]3CCCN3C)nc3c2CCN(c2cccc4cccc(Cl)c24)C3)C[C@@H]1CC#N [adagrasib]	-1.85	1.58
COc1ccccc1-c1cc(Nc2cccc(CS(N)(=O)=O)c2)ncn1 [LDC-067] + C=C(F)C(=O)N1CCN(c2nc(OC[C@@H]3CCCN3C)nc3c2CCN(c2cccc4cccc(Cl)c24)C3)C[C@@H]1CC#N [adagrasib]	5.11	3.49
Cc1cn(CCN2CCN(c3ccccc3-c3cc(C#N)cc(C(=O)NCCCN4CCCC4)c3)CC2)c2ccccc12 [LLY-507] + C=C(F)C(=O)N1CCN(c2nc(OC[C@@H]3CCCN3C)nc3c2CCN(c2cccc4cccc(Cl)c24)C3)C[C@@H]1CC#N [adagrasib]	12.6	20.3
Cc1ccc(NC(=O)c2ccnc(C(F)(F)F)c2)cc1-c1cc(OCCO)nc(N2CCOCC2)c1 [LXH-254] + C=C(F)C(=O)N1CCN(c2nc(OC[C@@H]3CCCN3C)nc3c2CCN(c2cccc4cccc(Cl)c24)C3)C[C@@H]1CC#N [adagrasib]	-3.51	0.67
Nc1cccc2c1CN(C1CCC(=O)NC1=O)C2=O (stereo unspecified) [Lenalidomide] + C=C(F)C(=O)N1CCN(c2nc(OC[C@@H]3CCCN3C)nc3c2CCN(c2cccc4cccc(Cl)c24)C3)C[C@@H]1CC#N [adagrasib]	-12.8	-3.14
O=C(O)c1nn(Cc2ccc(Cl)cc2Cl)c2ccccc12 [Lonidamine] + C=C(F)C(=O)N1CCN(c2nc(OC[C@@H]3CCCN3C)nc3c2CCN(c2cccc4cccc(Cl)c24)C3)C[C@@H]1CC#N [adagrasib]	-1.92	-1.95
CC[C@H](C)C(=O)O[C@H]1C[C@@H](C)C=C2C=C[C@H](C)[C@H](CC[C@@H]3C[C@@H](O)CC(=O)O3)[C@H]21 [Lovastatin] + C=C(F)C(=O)N1CCN(c2nc(OC[C@@H]3CCCN3C)nc3c2CCN(c2cccc4cccc(Cl)c24)C3)C[C@@H]1CC#N [adagrasib]	-4.64	1.03
COc1cc(Nc2ncc3c(n2)-c2ccc(Cl)cc2C(c2c(F)cccc2OC)=NC3)ccc1C(=O)O [MLN8237] + C=C(F)C(=O)N1CCN(c2nc(OC[C@@H]3CCCN3C)nc3c2CCN(c2cccc4cccc(Cl)c24)C3)C[C@@H]1CC#N [adagrasib]	-0.97	4.72
